These results are taken from ChEMBL document CHEMBL2417502, “Polyketides from the littoral plant associated fungus Pseudallescheria boydii” (2013).

In the test the test system is A549. Nature of the test: Cytotoxicity against human A549 cells after 72 hrs by SRB assay. In kind it is functional. The conditions noted are these: A549, 72 h.

Consider `CC[C@H](C)C1=C(OC)[C@H](O)[C@](C)(CC)C1=O`, for which the GI50 stood at 41.3 µM.
Next, `O=c1[nH]cc(F)c(=O)[nH]1` [FLUOROURACIL]: 3.6 µM; `CO[C@@H]1C(=O)CC[C@]2(CO2)[C@@]1(O)[C@@]1(C)O[C@@H]1CC=C(C)C` [OVALICIN]: 4.1 µM.

The GI50 is the concentration giving 50% growth inhibition. Higher therefore signals lower sensitivity of the cells.
